Data: publication PMC8708600, “Depth of the Steroid Core Location Determines the Mode of Na,K-ATPase Inhibition by Cardiotonic Steroids” (International Journal of Molecular Sciences, 2021)
Where “and” joins values, the source holds several entries; their conditions need not be identical. Equal values may be shown once. Entries after “also recorded” stand apart in the source; their conditions may differ. Read-outs that look alike come from different tables or passages of the source.

What was measured:
NKA in E2P-conformation = target: NKA in E2P-conformation; set-up: method as in PMID 33318128; details: read-out: Kd for binding to E2P-conformation; cited from earlier work
NKA from pig kidneys = details: read-out: IC50 measured for the enzyme from pig kidneys; cited from earlier work
[1] = target: T1, α1S-Na,K-ATPase in E2P-conformation (Sus scrofa, UniProt P05024); test: biochemical; type: binding, pig
T1 construct: In contrast to α1S-NKA from pig kidneys; from tissue; host or cells: pig kidney
Description: (§1) The thermodynamic parameters of CTSs’ binding to the pig and rat NKA were measured using the MicroCal iTC200 instrument (MicroCal, Northampton, MA, USA), as described earlier. α1S-NKA (pig) was transferred into E2P-conformation in the following way: enzyme preparations (5 mg) were suspended in 3 mL of buffer 10 mM imidazole, 3 mM Tris/Pi (pH 7.4), 1 mM EDTA, 0.1 mM DTT and 3 mM MgCl2 (E2P-conformation). DTT was added to the buffer immediately before the experiment. Suspensions of enzymes were centrifuged at 138,000 g for 90 min, and the pellets obtained were suspended in the buffer. α1R-NKA from rat kidneys was transferred into the buffer by dialysis.
(§2) Experiments were carried out at 37 °C. CTSs were diluted by a buffer that was used for enzyme suspension. Aliquots (2.5 μL) of ligands were injected into a 0.2 mL cell containing the protein solution to achieve a complete binding isotherm. The protein concentration on the cell ranged from 10 to 20 μM, and the ligand concentration in the syringe ranged from 50 to 200 μM. When we used digoxin or marinobufagenin, stock solutions were prepared using 100% DMSO, and then stock solutions were diluted to needed concentrations by the corresponding buffer; after that, aliquots were added to the cell. The medium with a protein of interest contained DMSO in the same concentration.
(§3) The resulting titration curves were fitted using the MicroCal Origin software, assuming one set of binding sites. Affinity constants (Ka) and enthalpy variations (ΔH) were determined, and the Gibbs energy (ΔG) and entropy variations (ΔS) were calculated from the equation:ΔG = −RTlnKa = ΔH – TΔS.

[2] = target: T2, α1S-Na,K-ATPase from pig kidneys in E2P-conformation (Sus scrofa, UniProt P05024); type: biochemical
T2 construct: In contrast to α1S-NKA from pig kidneys; from tissue; host or cells: pig kidney
Description: (§4) To identify a mode of enzyme inhibition by CTSs after their binding to different enzyme conformations, we preincubated NKA in the medium containing 30 MM imidazole (pH 7.4), 3 mM MgCl2, 3 mM Pi/Tris and 1 mM EDTA (E2P-conformation). Solutions of CTSs were made using 100% DMSO with a final concentration of ouabain 100 mM and digoxin and marinobufagenin at 10 mM. Then an aliquot of the corresponding stock solution was added to the preincubation medium to obtain a final CTSs concentration.
(§5) After enzyme preincubation with different concentrations of CTSs for several minutes, the reaction was started by transferring the aliquot of the solution containing 0.25–2.5 μg of NKA from the preincubation medium into the incubation one. The concentration of CTSs was decreased by this procedure by 50–100 times. […] That time interval was equal to 10 min for E2P-conformation of pig and rat kidney enzymes. The control sample was preincubated under the same conditions with a concentration of DMSO that was added to the experimental medium with the corresponding CTS.
(§6) The plots describing the dependence of the NKA hydrolytic activity on CTSs concentration in the incubation medium were made using the Origin 8.1 program (OriginLab Corp., Northampton, MA, USA). They were fitted by hyperbola. The dependence of the Na,K-ATPase hydrolytic activity on the CTSs’ concentration in the preincubation media was fitted to the Hill 1 function: y=y0+ymax−y0x^n/k^n+x^n, where y—Na,K-ATPase activity; x—concentration of CTS; k—inhibition constant; n—Hill coefficient. Fitting was performed using Origin 8.1 software.

[3] = target: T3, α1R-Na,K-ATPase from rat kidney in E2P-conformation (Rattus norvegicus, UniProt P06685); type: biochemical
T3 construct: α1R-NKA from rat kidneys was transferred into the buffer by dialysis; from tissue; host or cells: rat kidney
Description: as §4, §5, §6

[4] = target: T4, α1R-Na,K-ATPase in E2P-conformation (Rattus norvegicus, UniProt P06685); test: biochemical; type: binding
T4 construct: α1R-NKA from rat kidneys was transferred into the buffer by dialysis; from tissue; host or cells: rat kidney
Description: as §1, §2, §3

[5] = target: T5, α1S-Na,K-ATPase from pig kidneys (Sus scrofa, UniProt P05024); test: Hydrolytic Na,K-ATPase activity (enzyme coupled assay), CTS in incubation medium; type: biochemical
T5 construct: In contrast to α1S-NKA from pig kidneys; from tissue; host or cells: pig kidney
Description: (§7) NKA activity was estimated as ATP cleavage using the enzyme coupled assay method. Incubation medium (2 mL) contained 130 mM NaCl, 20 mM KCl, 4 mM MgCl2, 3 mM ATP, […] (pH 7.4), 1 mM phosphoenolpyruvate, 0.2 mM NADH, 0.18 MM; NADH and pyruvate kinase (600–1000 units/mL)/lactate dehydrogenase (900–1400 units/mL). […] Incubation was carried out at 37 °C, and the concentration of Na,K-ATPase in the sample was 0.4–0.6 μg/mL. […] To determine IC50, 2 μg NKA was preincubated with CTSs in the incubation medium for 10 min, and after that, the reaction was started by the addition of ATP.
as §6

[6] = target: T6, α1R-Na,K-ATPase from rat kidneys (Rattus norvegicus, UniProt P06685); test: as above; type: biochemical; details: for inhibition of α1R-NKA activity (in words): concentration up to 500 μM
T6 construct: α1R-NKA from rat kidneys was transferred into the buffer by dialysis; from tissue; host or cells: rat kidney
Description: as §7, §6

[7] = test system: NKA from duck salt glands (α1β1-isoform), E2P-conformation; set-up: method as in PMID 26297827; details: cited from earlier work; for Kd: read-out: Kd, binding to E2P-conformation of NKA
renal epithelial cells = test system: renal epithelial cells; set-up: method as in PMID 15494417; details: ion transport by NKA inhibited by 50% at these concentrations; cited from earlier work
[8] = ITC, E2P-conformation, pH 7.4, 37 °C
[9] = ITC, E2P-conformation, pH 7.4, 37 °C, calculated as Kd = 1/Ka, read-out: Kd (dissociation constant)
[10] = ITC, pH 7.4, 37 °C, ΔG = −RTlnKa
[11] = after preincubation with enzyme in E2P-conformation and dilution
[12] = ITC, E2P-conformation, pH 7.4, 37 °C, nd = not detected
[13] = CTS in incubation medium, 37 °C, hyperbola fit, read-out: IC50, inhibition of α1S-NKA hydrolytic activity
[14] = as restated in discussion, read-out: IC50 evaluated in our experiments

## C[C@]12CC[C@H](O)C[C@H]1CC[C@@H]1[C@@H]2CC[C@]2(C)[C@@H](c3ccc(=O)oc3)CC[C@]12O [bufalin]
NKA in E2P-conformation
  Kd: 125 nM
NKA from pig kidneys
  IC50: 110 nM

## C[C@H]1O[C@@H](O[C@H]2[C@@H](O)C[C@H](O[C@H]3[C@@H](O)C[C@H](O[C@H]4CC[C@@]5(C)[C@H](CC[C@@H]6[C@@H]5C[C@@H](O)[C@]5(C)[C@@H](C7=CC(=O)OC7)CC[C@]65O)C4)O[C@@H]3C)O[C@@H]2C)C[C@H](O)[C@@H]1O [digoxin]
[1]
  entropy component (−TΔS): -2.0 kcal/mol
[1]; pH 7.4
  TΔS (entropy variation): 2.0 kcal/mol
  n (reaction stoichiometry): 0.5 ± 0.1
  ΔG (Gibbs energy): -9.9 kcal/mol
  ΔH (enthalpy variation): -7.9 ± 0.6 kcal/mol and -7.9 kcal/mol
NKA in E2P-conformation
  Kd: 126 nM
[2]
  Hill coefficient: 1.90 ± 0.21 and 1.70 ± 0.33 and 1.99 ± 0.27
  mode of α1S-NKA inhibition (in words): pseudo-irreversible inhibitors
[3]
  mode of interaction with α1R-NKA (in words): reversible
[4]
  binding of α1R-NKA to CTS (in words): no measurable binding
[5]; IC50, inhibition of α1S-NKA hydrolytic activity
  IC50: 1200 nM
[5]; IC50 evaluated in our experiments
  IC50: 2000 nM
[6]
  IC50: 250000 nM
NKA from pig kidneys
  IC50: 1950 nM

## C[C@@H]1O[C@@H](O[C@H]2C[C@@H](O)[C@]3(CO)[C@H]4[C@H](O)C[C@]5(C)[C@@H](C6=CC(=O)OC6)CC[C@]5(O)[C@@H]4CC[C@]3(O)C2)[C@H](O)[C@H](O)[C@H]1O [ouabain]
[1]; [8]
  Ka (association constant): 1.9e+07 M⁻¹
  TΔS (entropy variation): -11.3 kcal/mol
  n (reaction stoichiometry): 0.7 ± 0.2
  ΔH (enthalpy variation): -21.6 ± 0.7 kcal/mol and -21.6 kcal/mol
[1]; [9]
  Kd: 53 nM
[1]; [10]
  ΔG (Gibbs energy): -10.3 kcal/mol
NKA in E2P-conformation
  Kd: 88 nM
[2]; CTS in preincubation medium, 40 nM of the enzyme
  Hill coefficient: 1.89 ± 0.14
[2]; CTS in preincubation medium, 80 nM of the enzyme
  Hill coefficient: 1.96 ± 0.19
[2]; CTS in preincubation medium, 400 nM of the enzyme
  Hill coefficient: 1.91 ± 0.09
[2]; [11]
  mode of α1S-NKA inhibition (in words): pseudo-irreversible inhibitors
[3]; after preincubation with enzyme and dilution
  mode of interaction with α1R-NKA (in words): reversibly; also recorded: reversible
[4]; ITC, 37 °C
  entropy component (−TΔS): -3.4 kcal/mol
[4]; [8]
  TΔS (entropy variation): 3.4 kcal/mol
[4]; [9]
  Kd: 3230 nM
[4]; [12]
  Ka (association constant): 3.1 × 10^5 * M^−1
  n (reaction stoichiometry): 0.6 ± 0.1
  ΔH (enthalpy variation): -4.3 ± 0.7 kcal/mol and -4.3 kcal/mol
[4]; [10]
  ΔG (Gibbs energy): -7.7 kcal/mol
[4]; ITC, α1R versus α1S
  ouabain affinity for α1R-NKA lower than for α1S-NKA: 60 times
[7]; E2P-conformation
  higher affinity of ouabain binding in comparison to marinobufagenin: 17 fold
[7]
  Kd: 100 nM
Renal epithelial cells
  concentration inducing renal epithelial cells death: ~0.1 µM
[5]; [13]
  IC50: 2000 nM
[5]; [14]
  IC50: 800 nM
[6]; CTS in incubation medium, 37 °C, hyperbola fit, read-out: IC50, inhibition of rat enzyme (α1R-NKA) hydrolytic activity
  IC50: 140000 nM
NKA from pig kidneys
  IC50: 900 nM

## C[C@]12CC[C@H](O)C[C@@]1(O)CC[C@@H]1[C@@H]2CC[C@]2(C)[C@@H](c3ccc(=O)oc3)C[C@H]3O[C@]132 [marinobufagenin]
[1]; ITC, 37 °C
  entropy component (−TΔS): -2.8 kcal/mol
[1]; ITC, E2P-conformation, 37 °C
  affinity of α1S-NKA for marinobufagenin lower than that for digoxin: ~11 times
  affinity of α1S-NKA for marinobufagenin lower than that for ouabain: about 44 times
[1]; [8]
  Ka (association constant): 4.3 × 10^5 * M^−1
  TΔS (entropy variation): 2.8 kcal/mol
  n (reaction stoichiometry): 1.7 ± 0.2
  ΔH (enthalpy variation): -5.2 ± 0.3 kcal/mol
[1]; [9]
  Kd: 2320 nM
[1]; ITC, E2P-conformation, pH 7.4, 37 °C, listed as MBG
  ΔH (enthalpy variation): -5.2 kcal/mol
[1]; ITC, Table 1 value as quoted in discussion, read-out: Kd for binding to E2P-conformation
  Kd: 2300 nM
[1]; [10]
  ΔG (Gibbs energy): -7.9 kcal/mol
[2]; [11]
  mode of α1S-NKA inhibition (in words): reversible inhibitor; also recorded: reversibly
[4]; ITC, association constants below 2 × 10^4 M^−1 cannot be measured
  binding of α1R-NKA to CTS (in words): no measurable binding
[7]
  Kd: 1700 nM
Renal epithelial cells
  concentration inducing renal epithelial cells death: about 1 μM
[5]; [13]
  IC50: 800 nM
[5]; [14]
  IC50: 1200 nM
[6]
  inhibition of α1R-NKA activity (in words): does not inhibit this isoform at all
[6]; listed as Marinobufagenin
  inhibition of α1R-NKA activity (in words): does not inhibit
NKA from pig kidneys
  IC50: 1500 nM
